The text below walks through data of ChEMBL document CHEMBL1800040, “Quantitative structure-activity relationship study of phloroglucinol-terpene adducts as anti-leishmanial agents” (Bioorg Med Chem Lett, 2011).

The test has as its system Leishmania donovani. Kind of test: Antileishmanial activity against Leishmania donovani promastigotes. It counts as functional, organism-based.

A value given as a limit tells only on which side of the number the result lay.

In the case of `CC(=O)c1c(O)c(C=O)c(O)c2c1O[C@]1(CC2)[C@@H]2CC[C@@H](C2)C1(C)C`, the IC50 (read-out: IC50) is 4.47 µM and the IC50 (read-out: pIC50 (converted)) is 5.22 µM.

As to `CC1(C)[C@H]2CC[C@H](C2)[C@]12CCc1c(O)c(C=O)c(O)c(C=O)c1O2`, the IC50 by setting is: (read-out: IC50) 4.07 µM; (read-out: pIC50 (converted)) 4.24 µM. Regarding `CC(C)CC(=O)c1c(O)c2c(c(C(=O)CC(C)C)c1O)O[C@]1(CC2)[C@@H]2CC[C@@H](C2)C1(C)C`, where the note is “read-out: IC50”, the IC50 was greater than 40 µg/mL. Take `CC(C)C[C@H]1C[C@@]2(CC[C@H]3C[C@@H]2C3(C)C)Oc2c(C=O)c(O)c(C=O)c(O)c21`: the IC50 (read-out: IC50) came to 5.17 µM and the IC50 (read-out: pIC50 (converted)) was 5.18 µM. On the same counts, the results for `CC(C)C[C@@H]1C[C@@]2(CC[C@H]3C[C@@H]2C3(C)C)Oc2c(C=O)c(O)c(C=O)c(O)c21` are 4.14 µM and 4.14 µM. On to `CC(=O)c1c(O)c(C=O)c2c(c1O)C[C@H]1C[C@H]3C[C@H](C3(C)C)[C@@]1(C)O2`, for which the IC50 runs as follows: (read-out: IC50) 2.73 µM; (read-out: pIC50 (converted)) 2.73 µM.

As for `CC(=O)c1c(O)c(C=O)c(O)c2c1O[C@@]1(C)[C@@H](C2)C[C@H]2C[C@@H]1C2(C)C`, the IC50 reads like this: (read-out: IC50) 4.94 µM; (read-out: pIC50 (converted)) 4.93 µM. With `CC1(C)[C@H]2C[C@@H]3Cc4c(O)c(C=O)c(O)c(C=O)c4O[C@]3(C)[C@@H]1C2`, the IC50 (read-out: IC50) is 7.26 µM and the IC50 (read-out: pIC50 (converted)) is 7.26 µM.

For `CC(=O)c1c(O)c(C=O)c2c(c1O)CC[C@@]1(CC[C@H]3C[C@@H]1C3(C)C)O2`, the IC50 reads like this: (read-out: IC50) 4.65 µM; (read-out: pIC50 (converted)) 4.65 µM. In the case of `CC(=O)c1c(O)c(C=O)c(O)c2c1O[C@@]1(CC2)CC[C@H]2C[C@@H]1C2(C)C`, the IC50 is 4.65 µM (read-out: IC50) and 4.65 µM (read-out: pIC50 (converted)).

In the case of `CC1(C)[C@H]2CC[C@@]3(CCc4c(O)c(C=O)c(O)c(C=O)c4O3)[C@@H]1C2`, the IC50 was 6.36 µM (read-out: IC50) and 6.35 µM (read-out: pIC50 (converted)). As to `CC(C)CC(=O)c1c(O)c2c(c(C(=O)CC(C)C)c1O)O[C@@]1(CC2)CC[C@H]2C[C@@H]1C2(C)C`, the IC50 (read-out: IC50) is greater than 40 µg/mL. Turning to `CC(C)CC(=O)c1c(O)c(C=O)c2c(c1O)C[C@H]1C[C@H]3[C@@H](C[C@@]1(C)O2)C3(C)C`, the IC50 was 0.73 µM (read-out: IC50) and 0.724 µM (read-out: pIC50 (converted)). On the same counts, the results for `CC(C)CC(=O)c1c(O)c(C=O)c(O)c2c1O[C@]1(C)C[C@@H]3[C@H](C[C@@H]1C2)C3(C)C` are 1.6 µM and 1.6 µM.

Turning to `CC(=O)c1c(O)c(C=O)c2c(c1O)C[C@H]1C[C@H]3[C@@H](C[C@@]1(C)O2)C3(C)C`, the IC50 runs as follows: (read-out: IC50) 2.76 µM; (read-out: pIC50 (converted)) 2.76 µM. Regarding `CC(=O)c1c(O)c(C=O)c(O)c2c1O[C@]1(C)C[C@@H]3[C@H](C[C@@H]1C2)C3(C)C`, the IC50 reads like this: (read-out: IC50) 4.07 µM; (read-out: pIC50 (converted)) 4.06 µM. The corresponding values for `CC1(C)[C@@H]2C[C@@]3(C)Oc4c(C=O)c(O)c(C=O)c(O)c4C[C@H]3C[C@@H]21` are 5.75 µM and 5.75 µM. Regarding `CC(C)CC(=O)c1c(O)c(C=O)c2c(c1O)CC[C@@]1(O2)[C@@H]2CC[C@@H](C2)C1(C)C`, the IC50 runs as follows: (read-out: IC50) 0.93 µM; (read-out: pIC50 (converted)) 0.931 µM. On to `CC(C)CC(=O)c1c(O)c(C=O)c(O)c2c1O[C@]1(CC2)[C@@H]2CC[C@@H](C2)C1(C)C`, for which the IC50 reads like this: (read-out: IC50) 4.07 µM; (read-out: pIC50 (converted)) 3.62 µM. The corresponding values for `CC(=O)c1c(O)c(C=O)c2c(c1O)CC[C@@]1(O2)[C@@H]2CC[C@@H](C2)C1(C)C` are 1.25 µM and 1.25 µM. On to `CC1(C)[C@H]2[C@@H]1CC[C@@H]1Cc3c(O)c(C=O)c(O)c(C=O)c3O[C@@]12C`, for which the IC50 by setting is: (read-out: IC50) 5.17 µM; (read-out: pIC50 (converted)) 6.05 µM. Turning to `CC(C)CC(=O)c1c(O)c2c(c(C(=O)CC(C)C)c1O)O[C@]1(C)C[C@@H]3[C@H](C[C@@H]1C2)C3(C)C`, the IC50 (read-out: IC50) was greater than 40 µg/mL.

For the compound `CC(C)CC(=O)c1c(O)c(C=O)c2c(c1O)C[C@H]1CC[C@H]3[C@H](C3(C)C)[C@@]1(C)O2`, the IC50 is, setting by setting: (read-out: IC50) 0.62 µM; (read-out: pIC50 (converted)) 0.621 µM. On the same counts, the results for `CC(C)CC(=O)c1c(O)c(C=O)c(O)c2c1O[C@@]1(CCO)[C@@H](C2)C[C@H]2C[C@@H]1C2(C)C` are 7.68 µM and 7.69 µM.

For the compound `CC(C)CC(=O)c1c(O)c(C=O)c2c(c1O)C[C@H]1C[C@H]3C[C@H](C3(C)C)[C@@]1(CCO)O2`, the IC50 is, setting by setting: (read-out: IC50) 2.28 µM; (read-out: pIC50 (converted)) 2.28 µM. `CC(C)CC(=O)c1c(O)c2c(c(C(=O)CC(C)C)c1O)O[C@@]1(CO)[C@@H](C2)C[C@H]2C[C@@H]1C2(C)C`: the IC50 (read-out: IC50) stood at 6.93 µM and the IC50 (read-out: pIC50 (converted)) is 6.93 µM. In the case of `CC1(C)[C@H]2C[C@@H]3Cc4c(O)c(C=O)c(O)c(C=O)c4O[C@]3(CO)[C@@H]1C2`, the IC50 (read-out: IC50) is greater than 40 µg/mL. Take `CC(C)CC(=O)c1c(O)c(C=O)c(O)c2c1O[C@@]1(C)[C@H](CC[C@H]3[C@@H]1C3(C)C)C2`: the IC50 by setting is: (read-out: IC50) 1.42 µM; (read-out: pIC50 (converted)) 1.42 µM. For `CC(C)CC(=O)c1c(O)c(C=O)c2c(c1O)C[C@H]1C[C@H]3C[C@H](C3(C)C)[C@@]1(CO)O2`, the IC50 is, setting by setting: (read-out: IC50) 4.47 µM; (read-out: pIC50 (converted)) 4.48 µM. The corresponding values for `CC1(C)[C@H]2C[C@@H]3Cc4c(O)c(C=O)c(O)c(C=O)c4O[C@]3(CCO)[C@@H]1C2` are 6.1 µM and 6.11 µM. `CC(C)CC(=O)c1c(O)c2c(c(C(=O)CC(C)C)c1O)O[C@@]1(C)[C@H](CC[C@H]3[C@@H]1C3(C)C)C2`: the IC50 (read-out: IC50) was greater than 40 µg/mL. On to `CC(C)CC(=O)c1c(O)c(C=O)c(O)c2c1O[C@@]1(CO)[C@@H](C2)C[C@H]2C[C@@H]1C2(C)C`, for which the IC50 runs as follows: (read-out: IC50) 7.45 µM; (read-out: pIC50 (converted)) 7.45 µM. Regarding `CC(C)CC(=O)c1c(O)c2c(c(C(=O)CC(C)C)c1O)O[C@@]1(CCO)[C@@H](C2)C[C@H]2C[C@@H]1C2(C)C`, for the setting “read-out: IC50”, the IC50 is greater than 40 µg/mL. For the compound `CC(C)CC(=O)c1c(O)c2c(c(C(=O)CC(C)C)c1O)O[C@@]1(C)[C@@H](C2)C[C@H]2C[C@@H]1C2(C)C`, the IC50 (read-out: IC50) was greater than 40 µg/mL. As for `CC(C)CC(=O)c1c(O)c(C=O)c(O)c2c1O[C@@]1(C)[C@@H](C2)C[C@H]2C[C@@H]1C2(C)C` [EUGLOBAL G1], the IC50 is, setting by setting: (read-out: IC50) 1.84 µM; (read-out: pIC50 (converted)) 1.84 µM. `CC(C)CC(=O)c1c(O)c(C=O)c2c(c1O)C[C@H]1C[C@H]3C[C@H](C3(C)C)[C@@]1(C)O2` [EUGLOBAL G2]: the IC50 reads like this: (read-out: IC50) 0.93 µM; (read-out: pIC50 (converted)) 0.931 µM.

Consider `CC(C)CC(=O)c1c(O)c(C=O)c2c(c1O)CC[C@@]1(CC[C@H]3C[C@@H]1C3(C)C)O2` [EUGLOBAL G3], for which the IC50 (read-out: IC50) was 1 µM and the IC50 (read-out: pIC50 (converted)) is 1.01 µM. In the case of `CC(C)CC(=O)c1c(O)c(C=O)c(O)c2c1O[C@@]1(CC2)CC[C@H]2C[C@@H]1C2(C)C` [EUGLOBAL G4], the IC50 (read-out: IC50) came out at 3.1 µM and the IC50 (read-out: pIC50 (converted)) was 3.1 µM.
